# Starred links: 1 amine or outer side, 2 acyl side, 3 side chain; linkers in the order of their positions; H or OH if unused. Positions of bridges follow the written chain, without caps; N, C: chain ends. Residues, ends and D or L forms follow the SMILES beside them. *: point of attachment. C18 diacid = O=C(O)CCCCCCCCCCCCCCCCC(=O)*; γGlu = O=C(O)[C@H](CCC(=O)[*:2])N[*:1]; AEEA = NCCOCCOCC(=O)O
# Target: T1, human natriuretic peptide receptor 2 (hNPR2) (Homo sapiens, UniProt P20594)
# T1 construct: expressed in transfected cells; host or cells: HEK293 (ATCC CRL-1573), clone 35, co-transfected with pGloSensor-42F
# T1 sequence (P20594 23-1047): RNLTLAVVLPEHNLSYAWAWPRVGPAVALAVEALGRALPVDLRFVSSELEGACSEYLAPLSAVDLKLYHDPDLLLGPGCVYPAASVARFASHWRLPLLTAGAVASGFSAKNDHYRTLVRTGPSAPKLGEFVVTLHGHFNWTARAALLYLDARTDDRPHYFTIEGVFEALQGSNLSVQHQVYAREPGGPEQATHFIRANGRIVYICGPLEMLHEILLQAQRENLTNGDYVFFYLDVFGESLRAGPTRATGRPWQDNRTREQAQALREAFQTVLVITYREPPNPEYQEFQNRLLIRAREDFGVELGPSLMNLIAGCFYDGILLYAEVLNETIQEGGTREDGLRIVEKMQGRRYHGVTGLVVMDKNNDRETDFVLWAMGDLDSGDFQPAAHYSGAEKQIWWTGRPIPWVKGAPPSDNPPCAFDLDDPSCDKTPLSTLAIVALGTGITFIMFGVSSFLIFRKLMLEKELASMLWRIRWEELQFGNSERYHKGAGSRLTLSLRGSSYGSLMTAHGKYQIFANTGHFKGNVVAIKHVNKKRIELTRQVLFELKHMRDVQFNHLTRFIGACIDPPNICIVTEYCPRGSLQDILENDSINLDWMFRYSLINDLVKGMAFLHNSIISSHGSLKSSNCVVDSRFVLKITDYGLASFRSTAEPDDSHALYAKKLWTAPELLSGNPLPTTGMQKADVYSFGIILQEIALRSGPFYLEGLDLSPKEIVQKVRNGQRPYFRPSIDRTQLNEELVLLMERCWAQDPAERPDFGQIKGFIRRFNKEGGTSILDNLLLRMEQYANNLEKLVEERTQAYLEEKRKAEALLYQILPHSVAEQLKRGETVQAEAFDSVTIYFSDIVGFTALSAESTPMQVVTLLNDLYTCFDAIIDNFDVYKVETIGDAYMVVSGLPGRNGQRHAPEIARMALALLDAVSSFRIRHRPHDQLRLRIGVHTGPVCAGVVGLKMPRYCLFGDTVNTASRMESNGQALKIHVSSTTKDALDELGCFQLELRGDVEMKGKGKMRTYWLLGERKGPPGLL
# Assay: In vitro hNPR2 activity assay (cGMP GloSensor reporter, HEK293)
# Assay type: cell-based
# Details: 0% HSA; HEK293-hNPR2/GloSensor cells
# Method in brief: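 Potency is the EC50 from a four-parameter logistic fit, also expressed relative to the in-plate CNP22 control (×100), with at least two replicates. Compounds (ten concentrations, […], HSA-free diluent with 1% OVA, 0.01% Tween20) were incubated 30 min at 37 °C on HEK293 cells co-expressing hNPR2 and a GloSensor cGMP luciferase. Luminescence detected with Bright-Glo.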
row,EC50,SMILES
1,2.53 nM,CC[C@H](C)[C@@H]1NC(=O)[C@H](CCCNC(=N)N)NC(=O)[C@H](CC(=O)O)NC(=O)[C@H](CC(C)C)NC(=O)[C@H](CCCCN)NC(=O)[C@H](CC(C)C)NC(=O)CNC(=O)[C@H](Cc2ccccc2)NC(=O)[C@@H](NC(=O)CNC(=O)[C@H](CCCCN)NC(=O)[C@H](CO)NC(=O)[C@H](CC(C)C)NC(=O)CNC(=O)[C@H](CCCCN)NC(=O)[C@H](CCCCN)NC(=O)[C@H](CCC(N)=O)NC(=O)[C@H](C)NC(=O)CNC(=O)[C@H](Cc2c[nH]cn2)NC(=O)[C@H](CCC(=O)O)NC(=O)COCCOCCNC(=O)COCCOCCNC(=O)COCCOCCNC(=O)CC[C@H](NC(=O)CC[C@H](NC(=O)CCCCCCCCCCCCCCCCC(=O)O)C(=O)O)C(=O)O)CSSC[C@@H](C(=O)O)NC(=O)CNC(=O)[C@H](CC(C)C)NC(=O)CNC(=O)[C@H](CO)NC(=O)[C@H](CC(C)C)NC(=O)[C@H](CO)NC(=O)CNC1=O [compound 1357]

# Same assay, conditions: potency relative to CNP22 (0065)
row,SMILES,hNPR2 0% HSA. [EC50% rel CNP]
1,CC[C@H](C)[C@@H]1NC(=O)[C@H](CCCNC(=N)N)NC(=O)[C@H](CC(=O)O)NC(=O)[C@H](CC(C)C)NC(=O)[C@@H]2CCCN2C(=O)[C@H](CC(C)C)NC(=O)CNC(=O)[C@H](Cc2ccccc2)NC(=O)[C@@H](NC(=O)CNC(=O)[C@H](CO)NC(=O)[C@H](CO)NC(=O)[C@H](CC(C)C)NC(=O)CNC(=O)[C@H](CCCCN)NC(=O)[C@H](CCCCN)NC(=O)[C@H](CCC(N)=O)NC(=O)[C@H](C)NC(=O)CNC(=O)[C@H](CCCCN)NC(=O)[C@H](Cc2ccc(O)cc2)NC(=O)COCCOCCNC(=O)COCCOCCNC(=O)COCCOCCNC(=O)CC[C@H](NC(=O)CCCCCCCCCCCCCCCCC(=O)O)C(=O)O)CSSC[C@@H](C(=O)O)NC(=O)CNC(=O)[C@H](CC(C)C)NC(=O)CNC(=O)[C@H](CO)NC(=O)[C@H](CC(C)C)NC(=O)[C@H](CO)NC(=O)CNC1=O [compound 1355] ({C18 diacid-γGlu-AEEA-AEEA-AEEA}-YKGAQKKGLSSGCFGLPLDRIGSLSGLGC-OH; disulfide 13-29),28.2%
2,CC[C@H](C)[C@@H]1NC(=O)[C@H](CCCNC(=N)N)NC(=O)[C@H](CC(=O)O)NC(=O)[C@H](CC(C)C)NC(=O)[C@H](CCCCN)NC(=O)[C@H](CC(C)C)NC(=O)CNC(=O)[C@H](Cc2ccccc2)NC(=O)[C@@H](NC(=O)CNC(=O)[C@H](CCCCN)NC(=O)[C@H](CO)NC(=O)[C@H](CC(C)C)NC(=O)CNC(=O)[C@H](CCCCN)NC(=O)[C@H](CCCCN)NC(=O)[C@H](CCC(N)=O)NC(=O)[C@H](C)NC(=O)CNC(=O)[C@H](Cc2c[nH]cn2)NC(=O)[C@H](CCC(=O)O)NC(=O)COCCOCCNC(=O)COCCOCCNC(=O)COCCOCCNC(=O)CC[C@H](NC(=O)CC[C@H](NC(=O)CCCCCCCCCCCCCCCCC(=O)O)C(=O)O)C(=O)O)CSSC[C@@H](C(=O)O)NC(=O)CNC(=O)[C@H](CC(C)C)NC(=O)CNC(=O)[C@H](CO)NC(=O)[C@H](CC(C)C)NC(=O)[C@H](CO)NC(=O)CNC1=O [compound 1357],4.3%
3,CC[C@H](C)[C@@H]1NC(=O)[C@H](CCCNC(=N)N)NC(=O)[C@H](CC(=O)O)NC(=O)[C@H](CC(C)C)NC(=O)[C@@H]2CCCN2C(=O)[C@H](CC(C)C)NC(=O)CNC(=O)[C@H](Cc2ccccc2)NC(=O)[C@@H](NC(=O)CNC(=O)[C@H](CO)NC(=O)[C@H](CO)NC(=O)[C@@H](NC(=O)CNC(=O)[C@@H](NC(=O)[C@H](CCCCN)NC(=O)[C@H](CCC(N)=O)NC(=O)[C@H](C)NC(=O)CNC(=O)[C@H](Cc2c[nH]cn2)NC(=O)[C@H](CCC(=O)O)NC(=O)[C@H](CCCCN)NC(=O)[C@H](CCCNC(=N)N)NC(=O)[C@H](C)NC(=O)COCCOCCNC(=O)COCCOCCNC(=O)CC[C@H](NC(=O)CCCCCCCCCCCCCCCCC(=O)O)C(=O)O)[C@@H](C)O)C(C)C)CSSC[C@@H](C(=O)O)NC(=O)CNC(=O)[C@H](CC(C)C)NC(=O)CNC(=O)[C@H](CO)NC(=O)[C@H](CC(C)C)NC(=O)[C@H](CO)NC(=O)CNC1=O [compound 1359] ({C18 diacid-γGlu-AEEA-AEEA}-ARKEHGAQKTGVSSGCFGLPLDRIGSLSGLGC-OH; disulfide 16-32; C-terminus assumed),28.2%
4,CC[C@H](C)[C@@H]1NC(=O)[C@H](CCCNC(=N)N)NC(=O)[C@H](CC(=O)O)NC(=O)[C@H](CC(C)C)NC(=O)[C@@H]2CCCN2C(=O)[C@H](CC(C)C)NC(=O)CNC(=O)[C@H](Cc2ccccc2)NC(=O)[C@@H](NC(=O)CNC(=O)[C@H](CO)NC(=O)[C@H](CO)NC(=O)[C@@H](NC(=O)CNC(=O)[C@@H](NC(=O)[C@H](Cc2c[nH]cn2)NC(=O)[C@H](CCC(N)=O)NC(=O)[C@H](C)NC(=O)CNC(=O)[C@H](Cc2c[nH]cn2)NC(=O)[C@H](CCC(=O)O)NC(=O)[C@H](CCCCN)NC(=O)[C@H](CCCNC(=N)N)NC(=O)[C@H](C)NC(=O)COCCOCCNC(=O)COCCOCCNC(=O)CC[C@H](NC(=O)CCCCCCCCCCCCCCCCC(=O)O)C(=O)O)[C@@H](C)O)C(C)C)CSSC[C@@H](C(=O)O)NC(=O)CNC(=O)[C@H](CC(C)C)NC(=O)CNC(=O)[C@H](CO)NC(=O)[C@H](CC(C)C)NC(=O)[C@H](CO)NC(=O)CNC1=O [compound 1360] ({C18 diacid-γGlu-AEEA-AEEA}-ARKEHGAQHTGVSSGCFGLPLDRIGSLSGLGC-OH; disulfide 16-32),15.1%
5,CC[C@H](C)[C@@H]1NC(=O)[C@H](CCCNC(=N)N)NC(=O)[C@H](CC(=O)O)NC(=O)[C@H](CC(C)C)NC(=O)[C@@H]2CCCN2C(=O)[C@H](CC(C)C)NC(=O)CNC(=O)[C@H](Cc2ccccc2)NC(=O)[C@@H](NC(=O)CNC(=O)[C@H](CO)NC(=O)[C@H](CO)NC(=O)[C@H](CC(C)C)NC(=O)CNC(=O)[C@H](CCCCN)NC(=O)[C@H](CCCCN)NC(=O)[C@H](CCC(N)=O)NC(=O)[C@H](C)NC(=O)CNC(=O)[C@H](CCC(=O)O)NC(=O)[C@H](Cc2ccc(O)cc2)NC(=O)[C@H](CO)NC(=O)[C@H](CCCNC(=N)N)NC(=O)[C@H](C)NC(=O)[C@H](CCC(=O)O)NC(=O)[C@@H]2CCCN2C(=O)[C@H](Cc2c[nH]cn2)NC(=O)[C@H](CCC(=O)O)NC(=O)[C@H](CCC(N)=O)NC(=O)COCCOCCNC(=O)COCCOCCNC(=O)CC[C@H](NC(=O)CCCCCCCCCCCCCCCCC(=O)O)C(=O)O)CSSC[C@@H](C(=O)O)NC(=O)CNC(=O)[C@H](CC(C)C)NC(=O)CNC(=O)[C@H](CO)NC(=O)[C@H](CC(C)C)NC(=O)[C@H](CO)NC(=O)CNC1=O [compound 1380] ({C18 diacid-γGlu-AEEA-AEEA}-QEHPEARSYEGAQKKGLSSGCFGLPLDRIGSLSGLGC-OH; disulfide 21-37; C-terminus assumed),15.7%
6,CC[C@H](C)[C@@H]1NC(=O)[C@H](CCCNC(=N)N)NC(=O)[C@H](CC(=O)O)NC(=O)[C@H](CC(C)C)NC(=O)[C@@H]2CCCN2C(=O)[C@H](CC(C)C)NC(=O)CNC(=O)[C@H](Cc2ccccc2)NC(=O)[C@@H](NC(=O)CNC(=O)[C@H](CCC(N)=O)NC(=O)[C@H](CO)NC(=O)[C@H](CO)NC(=O)CNC(=O)[C@H](Cc2c[nH]cn2)NC(=O)[C@H](CCCCN)NC(=O)[C@H](CCC(N)=O)NC(=O)[C@H](C)NC(=O)CNC(=O)[C@H](Cc2c[nH]cn2)NC(=O)[C@H](Cc2ccc(O)cc2)NC(=O)[C@H](CCCCN)NC(=O)[C@H](Cc2c[nH]cn2)NC(=O)[C@H](C)NC(=O)[C@H](CCC(N)=O)NC(=O)[C@@H]2CCCN2C(=O)[C@H](Cc2c[nH]cn2)NC(=O)[C@H](CCC(=O)O)NC(=O)[C@H](CCC(N)=O)NC(=O)COCCOCCNC(=O)COCCOCCNC(=O)CC[C@H](NC(=O)CC[C@H](NC(=O)CCCCCCCCCCCCCCCCC(=O)O)C(=O)O)C(=O)O)CSSC[C@@H](C(=O)O)NC(=O)CNC(=O)[C@H](CC(C)C)NC(=O)CNC(=O)[C@H](CO)NC(=O)[C@H](CC(C)C)NC(=O)[C@H](CO)NC(=O)CNC1=O [compound 1383] ({C18 diacid-γGlu-γGlu-AEEA-AEEA}-QEHPQAHKYHGAQKHGSSQGCFGLPLDRIGSLSGLGC-OH; disulfide 21-37),43.1%
7,CC[C@H](C)[C@@H]1NC(=O)[C@H](CCCNC(=N)N)NC(=O)[C@H](CC(=O)O)NC(=O)[C@H](CC(C)C)NC(=O)[C@@H]2CCCN2C(=O)[C@H](CC(C)C)NC(=O)CNC(=O)[C@H](Cc2ccccc2)NC(=O)[C@@H](NC(=O)CNC(=O)[C@H](CCCCN)NC(=O)[C@H](CO)NC(=O)[C@H](CC(C)C)NC(=O)CNC(=O)[C@H](CCCCN)NC(=O)[C@H](CCCCN)NC(=O)[C@H](CCC(N)=O)NC(=O)[C@H](C)NC(=O)CNC(=O)[C@H](CCC(=O)O)NC(=O)[C@H](Cc2ccc(O)cc2)NC(=O)[C@H](CCCCN)NC(=O)[C@H](CCCNC(=N)N)NC(=O)[C@H](C)NC(=O)CC[C@H](NC(=O)CC[C@H](NC(=O)CC[C@H](NC(=O)CC[C@H](NC(=O)CCCCCCCCCCCCCCCCC(=O)O)C(=O)O)C(=O)O)C(=O)O)C(=O)O)CSSC[C@@H](C(=O)O)NC(=O)CNC(=O)[C@H](CC(C)C)NC(=O)CNC(=O)[C@H](CO)NC(=O)[C@H](CC(C)C)NC(=O)[C@H](CO)NC(=O)CNC1=O [compound 1385] ({C18 diacid-γGlu-γGlu-γGlu-γGlu}-ARKYEGAQKKGLSKGCFGLPLDRIGSLSGLGC-OH; disulfide 16-32),30.7%
